Earlier results as cited in patent US10273202B2, “Nitroxyl progenitor compounds and methods of use” (The Johns Hopkins University, priority 2004, dated 2019).
Where two headings read alike, the source gives them in different places.

System: dog with congestive heart failure
Conditions: CHF dogs
[1] = 5-10 μg/kg/min for 15 min i.v., n=8

[Na+].[Na+].[O-][N+]([O-])=NO [AS, Angeli's salt]
Ees, % from baseline [1]: +46 ± 8%
LVEDD, % from baseline [1]: −3.8 ± 1%
LVEDP, % from baseline [1]: −50 ± 12%
LVESD, % from baseline [1]: −3.9 ± 1%
LVESP, % from baseline [1]: −13 ± 2%
RT, % from baseline [1]: −12 ± 5%
Tau, % from baseline [1]: −18 ± 2%
Ees, % from baseline (5-10 μg/kg/min, + volume): +37 ± 5%
LVEDD, % from baseline (5-10 μg/kg/min, + volume): −1.7 ± 1%
LVEDP, % from baseline (5-10 μg/kg/min, + volume): −34 ± 19%
LVESD, % from baseline (5-10 μg/kg/min, + volume): −3.0 ± 0.5%
LVESP, % from baseline (5-10 μg/kg/min, + volume): −9.9 ± 2%
RT, % from baseline (5-10 μg/kg/min, + volume): −14 ± 4%
Tau, % from baseline (5-10 μg/kg/min, + volume): −15 ± 3%
